# Assay results taken from article PMC4775225, “Bromodomain inhibition of the transcriptional coactivators CBP/EP300 as a therapeutic strategy to target the IRF4 network in multiple myeloma” (eLife, 2016).
# Experiments:
# [1] = molecular target: T1, CBP bromodomain (amino acids 1082–1197) (Homo sapiens, UniProt Q92793); assay: AlphaLISA, acetylated peptide binding to CBP bromodomain; conditions: isolated CBP bromodomain, H4-TetraAc-biotin peptide; n ≥ 2 independent replicates
# T1 construct: His-Flag-tagged CBP bromodomain (amino acids 1082–1197)
# Experimental: (§1) Compound at varying concentrations were dispensed into 384 well Proxiplates (Perkin Elmer) using Echo technology (Labcyte, Inc.; Sunnyvale, CA). For CBP assays, 0.5 μM His-Flag-tagged CBP bromodomain (amino acids 1082–1197) was incubated with 0.003 μM H4-TetraAc-biotin for 20 min at room temperature in 1x reaction buffer (50 mM HEPES pH 7.5, 1 mM TCEP, 0.069 mM Brij-35, 150 mM NaCl, and 0.1 mg/ml BSA). Streptavidin acceptor beads and nickel donor beads (Perkin Elmer) were added to 15 μg/ml with a Combi Multidrop dispenser. Plates were sealed and incubated at 90 min in the dark at room temperature, and plates were read on an Envision plate reader (Perkin Elmer) according to manufacturer’s instructions. For the BET assays, the protocol was similar except that BET family bromodomains were used at 0.03 μM (BRD4-BD1) and incubated with 0.2 μM H4-TetraAc-biotin for 20 min in reaction buffer (40 mM HEPES pH7.0, 1 mM DTT, 0.069 mM Brij-35, 40 mM NaCl, and 0.1 mg/ml BSA). Streptavidin donor beads and Anti-Flag Acceptor beads (Perkin Elmer) were added to 10 μg/ml, and then plates were sealed and incubated in the dark for 60 min prior to reading on the Envision.
# [2] = molecular target: T2, first bromodomain of BRD4 (BRD4-BD1) (Homo sapiens, UniProt O60885); assay: AlphaLISA, acetylated peptide binding to BRD4-BD1; conditions: BRD4-BD1, H4-TetraAc-biotin peptide; n ≥ 2 independent replicates
# T2 construct: the first bromodomain of BRD4 (BRD4-BD1)
# Experimental: as §1
# [3] = molecular target: T3, CBP bromodomain and histone H3.3 (Homo sapiens, UniProt Q92793); assay: NanoBRET, CBP bromodomain/histone H3.3 in HEK293 cells; format: cell-based; conditions: NanoBRET, 293 cells
# T3 construct: NanoBRET with the isolated CBP bromodomain and histone H3.3 in 293 cells; host or cells: HEK293
# Experimental: NanoBRET was carried out using the NanoBRET Protein:Protein Interaction System (Promega, Inc.; Madison, WI) according to the manufacturer’s instructions. Briefly, HEK293 cells were transiently co-transfected with a vector for histone H3.3-HaloTag and a NanoLuc tagged CBP bromodomain expression construct. Transfected cells were plated in 96 -well plates in the presence or absence of ligand, then treated with dose titrations of indicated compounds. Readings were performed on an Envision Plate Reader (Perkin Elmer, Inc.; Waltham, MA) and BRET readings were calculated by dividing the acceptor emission value (600 nm) by the donor emission value (460/50 nm).
# [4] = molecular target: T4, full length BRD4 ZsGreen fusion protein (Homo sapiens, UniProt O60885); assay: Bromodomain chromatin release assay, BRD4 (U2OS, high content imaging); format: cell-based; conditions: 2 hr, n = 2 biological replicates ± SEM, read-out: IC50 (μM), BRD4 chromatin release (EC50)
# T4 construct: CBP: CBP-bromodomain/BRD9; BRD4: full length BRD4; expressed in transfected cells
# Experimental: As described previously ([Huang et al., 2014]), this assay monitors the compound-dependent release and aggregation of a fusion protein consisting of a bromodomain and the fluorescent protein ZsGreen. For the BRD4 chromatin release assay, U2OS cells capable of inducibly expressing the full-length BRD4 protein in fusion with ZsG were generated using the pLVT3G/ZsGreen-BRD4/TO3G vector and maintained in blasticidin at 15 μg/ml. […] Therefore, the bromodomain (BD) of CBP was cloned into full length BRD9 (replacing the BRD9 BD) in frame with a ZsGreen fluorescent tag (ZsG). U2OS cells capable of inducibly expressing the ZsGreen-CBPBD fusion protein were generated by lentiviral delivery of the pLVT3G/BRD9-ZsG-CBPBD/TO3G vector, which contains both the inducible fusion protein and the tet transactivator. Cells were selected and maintained in the presence of 15 μg/ml blasticidin. 5000 cells/well were seeded in 384-well imaging plates in the presence of 2 μg/ml doxycycline to induce the expression of ZsG-fusion proteins. After 16 hr of incubation with doxycycline, fresh media containing serial dilution of compounds were added to the cells for 2 hr at 37°C. Cells were fixed with 4% paraformaldehyde (PFA) dissolved in PBS for 15 min at room temperature. Images of cells were acquired using ImageXpress Micro (Molecular Devices, Inc.; Sunnyvale, CA) and processed with the Transfluor Module of MetaXpress software. Average pits per cell values were obtained from four adjacent images in each well with two technical replicates for each compound concentration. Dose-response curves were generated by plotting the average pits per cell values at each dose and EC50 values were calculated by a four-parameter non-linear regression model in GraphPad Prism.
# T3 sequence (Q92793 1085-1192 limits assumed): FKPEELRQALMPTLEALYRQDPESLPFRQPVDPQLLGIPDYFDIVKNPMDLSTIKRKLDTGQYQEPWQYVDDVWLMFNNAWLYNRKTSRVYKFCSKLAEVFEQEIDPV
# T1 sequence (Q92793 1082-1197): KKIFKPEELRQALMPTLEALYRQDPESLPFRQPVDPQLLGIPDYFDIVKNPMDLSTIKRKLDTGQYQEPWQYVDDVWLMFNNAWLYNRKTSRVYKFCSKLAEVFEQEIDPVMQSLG
smiles,measurement,setting,value
Cc1sc2c(c1C)C(c1ccc(Cl)cc1)=N[C@@H](CC(N)=O)c1nnc(C)n1-2 [CPI203],IC50,[1],6500 ± 640 nM
same,IC50,[2],50 ± 10 nM
same,dose-dependent inhibition of CBP-H3.3 binding,[3],did not display dose-dependent inhibition
same,EC50,[4],0.05 ± 0.02 µM
